{
  "source": "paper doi:10.1101/2022.09.01.506269v1",
  "about": "(biorxiv, 2022)",
  "key": {"CYP3A4": {"target": "CYP3A4 (Homo sapiens, UniProt P08684)", "sequence (P08684 2-503)": "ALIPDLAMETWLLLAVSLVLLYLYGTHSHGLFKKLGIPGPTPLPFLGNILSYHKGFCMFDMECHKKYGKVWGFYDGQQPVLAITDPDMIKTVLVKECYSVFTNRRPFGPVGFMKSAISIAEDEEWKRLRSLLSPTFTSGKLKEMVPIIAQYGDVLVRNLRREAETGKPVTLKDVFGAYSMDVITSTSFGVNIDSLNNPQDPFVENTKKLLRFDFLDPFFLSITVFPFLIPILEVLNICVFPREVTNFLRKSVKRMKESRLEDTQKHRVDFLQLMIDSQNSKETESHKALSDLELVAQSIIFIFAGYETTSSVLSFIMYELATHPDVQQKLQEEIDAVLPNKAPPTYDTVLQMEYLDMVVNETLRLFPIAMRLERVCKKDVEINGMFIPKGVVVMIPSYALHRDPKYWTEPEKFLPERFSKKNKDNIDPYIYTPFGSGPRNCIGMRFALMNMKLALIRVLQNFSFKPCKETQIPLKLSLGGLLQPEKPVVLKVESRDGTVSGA", "test": "CYP3A4 inhibition, method not given", "format": "biochemical"}, "choline transporter": {"target": "T1, choline transporter (Homo sapiens, UniProt Q9GZV3)", "T1 sequence (Q9GZV3 1-580)": "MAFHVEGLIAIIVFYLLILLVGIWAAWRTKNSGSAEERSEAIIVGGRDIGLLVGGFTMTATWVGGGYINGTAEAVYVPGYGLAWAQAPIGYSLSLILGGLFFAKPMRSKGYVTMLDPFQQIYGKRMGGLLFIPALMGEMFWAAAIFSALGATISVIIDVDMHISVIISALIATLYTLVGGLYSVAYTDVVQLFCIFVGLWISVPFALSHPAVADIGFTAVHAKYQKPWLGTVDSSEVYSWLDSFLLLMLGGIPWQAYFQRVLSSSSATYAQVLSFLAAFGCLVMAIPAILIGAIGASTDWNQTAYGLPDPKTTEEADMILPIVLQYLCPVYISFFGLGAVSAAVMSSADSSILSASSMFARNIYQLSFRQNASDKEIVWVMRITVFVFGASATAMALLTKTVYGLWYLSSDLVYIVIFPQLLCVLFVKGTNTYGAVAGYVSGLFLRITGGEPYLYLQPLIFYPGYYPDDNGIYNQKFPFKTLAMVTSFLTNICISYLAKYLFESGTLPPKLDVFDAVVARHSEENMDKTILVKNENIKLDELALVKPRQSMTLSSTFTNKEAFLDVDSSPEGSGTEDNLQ", "test": "biochemical"}, "D1": {"target": "D1 (Homo sapiens, UniProt P21728)", "sequence (P21728 whole entry)": "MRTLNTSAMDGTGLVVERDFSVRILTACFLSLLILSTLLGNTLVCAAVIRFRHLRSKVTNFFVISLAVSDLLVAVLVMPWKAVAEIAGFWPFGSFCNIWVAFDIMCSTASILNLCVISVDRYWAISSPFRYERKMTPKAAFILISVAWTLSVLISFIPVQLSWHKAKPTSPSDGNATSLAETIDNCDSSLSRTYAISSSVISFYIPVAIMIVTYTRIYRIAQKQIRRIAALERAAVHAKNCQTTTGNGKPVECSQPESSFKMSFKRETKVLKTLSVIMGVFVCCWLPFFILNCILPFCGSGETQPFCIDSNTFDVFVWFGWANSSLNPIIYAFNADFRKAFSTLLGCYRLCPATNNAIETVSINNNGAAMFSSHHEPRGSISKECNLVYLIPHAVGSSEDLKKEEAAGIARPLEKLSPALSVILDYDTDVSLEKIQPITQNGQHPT", "test": "biochemical"}, "[1]": {"conditions": "read-out: XEN601 % inhibition at 1 µM"}, "[2]": {"conditions": "read-out: XEN602 % inhibition at 1 µM"}},
  "note": "Where two headings read alike, the source gives them in different places.",
  "data": [
    {"smiles": "N=C(N)SCc1ccccc1Oc1ccc(-c2ccc(Oc3ccccc3CSC(=N)N)c(CSC(=N)N)c2)cc1CSC(=N)N", "note": "[compound 5, XEN601]", "values": [
      {"measurement": "IC50", "setting": "CYP3A4", "result": "< 1000", "unit": "nM"},
      {"measurement": "inhibition at 1 µM", "setting": "choline transporter; [1]", "result": 62, "unit": "%"},
      {"measurement": "inhibition at 1 µM", "setting": "D1; [1]", "result": 69, "unit": "%"}
    ]},
    {"smiles": "N=C(N)SCc1cc(F)ccc1Oc1ccc(-c2ccc(Oc3ccc(CCCN4CCNCC4)cc3CSC(=N)N)c(CSC(=N)N)c2)cc1CSC(=N)N", "note": "[compound 6, XEN602]", "values": [
      {"measurement": "inhibition at 1 µM", "setting": "choline transporter; [2]", "result": 52, "unit": "%"},
      {"measurement": "inhibition at 1 µM", "setting": "D1; [2]", "result": 59, "unit": "%"}
    ]}
  ]
}
